Test results reported in ChEMBL document CHEMBL1914391, “Design and synthesis of biotinylated inositol 1,3,4,5-tetrakisphosphate targeting Grp1 pleckstrin homology domain” (Bioorg Med Chem, 2011).
pKd: −log10 of the molar value.

Experiments:
[1] = target: T1, Cytohesin-3 (Rattus norvegicus, UniProt P97696); assay: Binding affinity to recombinant rat brain Grp1 PH domain (amino acids 1 to 120) by SPR analysis
T1 sequence (P97696 whole entry): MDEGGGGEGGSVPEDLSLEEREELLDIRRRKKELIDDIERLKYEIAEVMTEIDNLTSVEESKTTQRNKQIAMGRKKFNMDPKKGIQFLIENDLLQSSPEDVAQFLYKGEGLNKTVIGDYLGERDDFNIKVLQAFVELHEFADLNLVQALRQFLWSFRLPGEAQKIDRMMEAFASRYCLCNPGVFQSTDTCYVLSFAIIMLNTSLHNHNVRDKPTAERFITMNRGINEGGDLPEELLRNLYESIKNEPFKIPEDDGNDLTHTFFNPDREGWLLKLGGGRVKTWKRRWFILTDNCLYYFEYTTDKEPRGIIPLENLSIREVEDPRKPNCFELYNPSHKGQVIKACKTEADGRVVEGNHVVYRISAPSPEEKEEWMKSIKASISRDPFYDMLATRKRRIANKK

[2] = target: T2, 1-phosphatidylinositol 4,5-bisphosphate phosphodiesterase delta-1 (Homo sapiens, UniProt P51178); assay: Binding affinity to PLCdelta1 PH domain
T2 sequence (P51178 whole entry): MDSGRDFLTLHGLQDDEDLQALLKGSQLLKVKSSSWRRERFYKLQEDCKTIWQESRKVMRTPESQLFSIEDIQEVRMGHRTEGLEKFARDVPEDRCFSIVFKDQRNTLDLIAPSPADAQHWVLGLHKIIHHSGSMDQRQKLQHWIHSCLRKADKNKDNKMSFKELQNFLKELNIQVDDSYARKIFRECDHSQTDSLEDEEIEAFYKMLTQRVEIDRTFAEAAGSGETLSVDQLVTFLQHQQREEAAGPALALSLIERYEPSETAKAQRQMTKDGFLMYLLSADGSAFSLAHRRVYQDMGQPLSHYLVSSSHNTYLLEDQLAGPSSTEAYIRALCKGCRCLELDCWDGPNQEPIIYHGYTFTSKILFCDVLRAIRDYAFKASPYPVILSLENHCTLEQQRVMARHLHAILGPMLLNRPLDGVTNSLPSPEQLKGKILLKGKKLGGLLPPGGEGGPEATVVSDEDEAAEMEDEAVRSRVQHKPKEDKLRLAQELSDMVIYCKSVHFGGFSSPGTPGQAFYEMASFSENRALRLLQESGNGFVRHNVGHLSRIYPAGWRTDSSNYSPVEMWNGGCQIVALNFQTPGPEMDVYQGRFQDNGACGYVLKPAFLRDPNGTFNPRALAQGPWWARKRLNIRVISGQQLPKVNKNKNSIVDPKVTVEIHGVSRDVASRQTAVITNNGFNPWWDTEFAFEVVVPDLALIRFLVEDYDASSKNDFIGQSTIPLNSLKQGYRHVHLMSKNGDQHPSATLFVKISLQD

[3] = target: T1, Cytohesin-3; assay: Binding affinity to recombinant rat brain Grp1 PH domain (amino acids 1 to 120) after 10 mins by pull-down assay
[4] = target: T3, 1-phosphatidylinositol 4,5-bisphosphate phosphodiesterase delta-1 (Rattus norvegicus, UniProt P10688); assay: Binding affinity to recombinant rat brain PLCdelta1 PH domain (amino acids 11 to 140) by SPR analysis
T3 sequence (P10688 whole entry): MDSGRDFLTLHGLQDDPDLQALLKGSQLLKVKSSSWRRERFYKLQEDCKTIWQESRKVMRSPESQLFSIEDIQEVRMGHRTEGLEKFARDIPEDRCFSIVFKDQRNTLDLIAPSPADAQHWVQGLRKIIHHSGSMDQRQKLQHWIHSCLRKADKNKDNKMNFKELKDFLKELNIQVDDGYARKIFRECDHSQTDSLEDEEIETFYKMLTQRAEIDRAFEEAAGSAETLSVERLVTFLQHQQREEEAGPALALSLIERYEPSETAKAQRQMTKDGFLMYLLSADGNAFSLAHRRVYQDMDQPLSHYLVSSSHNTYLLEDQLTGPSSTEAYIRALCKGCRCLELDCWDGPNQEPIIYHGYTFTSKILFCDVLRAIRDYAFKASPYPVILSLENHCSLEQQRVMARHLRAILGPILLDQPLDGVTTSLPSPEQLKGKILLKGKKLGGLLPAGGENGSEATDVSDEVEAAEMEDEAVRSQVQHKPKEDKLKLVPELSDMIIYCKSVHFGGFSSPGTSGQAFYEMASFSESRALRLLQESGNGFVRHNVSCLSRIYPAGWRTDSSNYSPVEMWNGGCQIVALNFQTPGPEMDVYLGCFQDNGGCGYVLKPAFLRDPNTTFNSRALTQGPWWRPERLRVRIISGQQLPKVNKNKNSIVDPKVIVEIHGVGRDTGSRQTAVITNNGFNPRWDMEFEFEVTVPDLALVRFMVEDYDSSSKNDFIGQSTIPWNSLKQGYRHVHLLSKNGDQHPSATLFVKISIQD

## O=C(CCCC[C@@H]1SC[C@@H]2NC(=O)N[C@@H]21)NCCCCCCOP(=O)(O)O[C@H]1[C@H](O)[C@@H](OP(=O)(O)O)[C@H](OP(=O)(O)O)[C@@H](OP(=O)(O)O)[C@H]1O
[1]
  pKd: 6.52
[2]
  pKd: 6.60
[3]
  pKd: 6.85
[4]
  pKd: < 5.30

## O=C(CCCC[C@@H]1SC[C@@H]2NC(=O)N[C@@H]21)NCCCCCCOP(=O)(O)O[C@@H]1[C@H](O)[C@H](O)[C@@H](OP(=O)(O)O)[C@H](OP(=O)(O)O)[C@H]1O
[1]
  pKd: < 6.00
[4]
  pKd: 5.66

## O=C(CCCC[C@@H]1SC[C@@H]2NC(=O)N[C@@H]21)NCCCCCCOP(=O)(O)O[C@@H]1[C@@H](O)[C@H](OP(=O)(O)O)[C@@H](OP(=O)(O)O)[C@H](O)[C@@H]1O
[1]
  pKd: < 6.00
[4]
  pKd: < 5.30

## O=P(O)(O)O[C@H]1[C@H](O)[C@@H](OP(=O)(O)O)[C@H](OP(=O)(O)O)[C@@H](OP(=O)(O)O)[C@H]1O
[3]
  pKd: 7.00
